#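 Assay format: 96-well plates, 48-hour exposure. The concentration for 50% growth inhibition is given as GI50.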 Calls of active or inactive are those of the source. No stated cut-off is given here; in the data, active = GI50 up to about 1.1 µM and inactive = higher.
# How the values were obtained:
# Assay in all cases: NCI-60 cell line screen, 48 h
# [1] = test system: ACHN
# [2] = test system: Hs-578T
# [3] = test system: K562
# [4] = test system: A498
# [5] = test system: HCT-15
# [6] = test system: HOP-92
# [7] = test system: MDA-MB-435
# [8] = test system: HL-60
# [9] = test system: DU-145
# [10] = test system: MDA-MB-231
# [11] = test system: BT-549
# [12] = test system: NCI/ADR-RES
# [13] = test system: OVCAR-3
# [14] = test system: UACC-62
# [15] = test system: MDA-N
# [16] = test system: MCF7
# [17] = test system: T47D
# [18] = test system: OVCAR-8
# [19] = test system: PC-3
Structure (SMILES),GI50 [1],GI50 [2],GI50 [3],GI50 [4],GI50 [5] [µM],GI50 [6],GI50 [7],GI50 [8],GI50 [9],GI50 [10],GI50 [11],GI50 [12],GI50 [13],GI50 [14],GI50 [15],GI50 [16],GI50 [17],GI50 [18],GI50 [19]
O=C(CCc1ccc(O)c(O)c1)OCCc1ccccc1,59.7 µM (inactive),> 100 µM (inactive),20.4 µM (inactive),> 100 µM (inactive),> 53,> 21.2 µM (inactive),20.8 µM (inactive),3.85 µM (inactive),> 100 µM (inactive),67.6 µM (inactive),> 100 µM (inactive),> 100 µM (inactive),29.6 µM (inactive),45.4 µM (inactive),15.4 µM (inactive),> 62.1 µM (inactive),> 96.4 µM (inactive),23.1 µM (inactive),> 100 µM (inactive)
CC12CCC(O)CC1CCC1C2CCC2(C)C(C(=O)CC(O)C(F)(F)F)CCC12 (centres undefined),47.6 µM (inactive),23.9 µM (inactive),3.8 µM (inactive),20.2 µM (inactive),9.06,31.8 µM (inactive),> 75 µM (inactive),9.02 µM (inactive),> 87.5 µM (inactive),26.7 µM (inactive),> 78.3 µM (inactive),24.9 µM (inactive),28.6 µM (inactive),52.2 µM (inactive),61.1 µM (inactive),31.2 µM (inactive),20.2 µM (inactive),55.7 µM (inactive),30.6 µM (inactive)
CSC1=Nc2ccccc2N(C)c2c1c(-c1ccccc1)nn2C,29.9 µM (inactive),68.9 µM (inactive),17.8 µM (inactive),–,56.9,29.5 µM (inactive),28.4 µM (inactive),15.2 µM (inactive),91.6 µM (inactive),45.2 µM (inactive),57.7 µM (inactive),21.8 µM (inactive),15.2 µM (inactive),35.2 µM (inactive),27.7 µM (inactive),23.8 µM (inactive),9.79 µM (inactive),32.7 µM (inactive),35.1 µM (inactive)
O=c1oc2ccccc2cc1-c1cn2cc(Cl)ccc2n1,0.586 µM (active),1.23 µM (inactive),0.495 µM (active),–,0.298,5.45 µM (inactive),0.0434 µM (active),2.59 µM (inactive),5.57 µM (inactive),3.01 µM (inactive),2.33 µM (inactive),0.345 µM (active),0.497 µM (active),0.245 µM (active),0.0881 µM (active),0.435 µM (active),11 µM (inactive),1.71 µM (inactive),1.93 µM (inactive)
O=C1CSC(c2ccc(Cl)cc2Cl)N1c1ccc(Oc2ccc(Cl)cc2)c(Cl)c1 (centres undefined),35.7 µM (inactive),14.7 µM (inactive),26.2 µM (inactive),–,25.6,21.8 µM (inactive),12.6 µM (inactive),16.4 µM (inactive),32.1 µM (inactive),19.4 µM (inactive),22.2 µM (inactive),21.6 µM (inactive),17.5 µM (inactive),21.9 µM (inactive),21.7 µM (inactive),33.2 µM (inactive),23.4 µM (inactive),29.9 µM (inactive),27.8 µM (inactive)
C[C@@]12CCC(=O)C=C1CC[C@H]1C2=CC[C@]2(C)C1CC[C@@]2(C)O (some centres undefined),> 100 µM (inactive),38.2 µM (inactive),38.4 µM (inactive),> 100 µM (inactive),36.2,> 100 µM (inactive),23.3 µM (inactive),25.4 µM (inactive),> 100 µM (inactive),67.5 µM (inactive),33.1 µM (inactive),34.7 µM (inactive),34.1 µM (inactive),37 µM (inactive),23 µM (inactive),57.3 µM (inactive),73.5 µM (inactive),> 100 µM (inactive),41.5 µM (inactive)
O=C(CC(=O)Nc1ccc(C(=O)O)cc1)Nc1ccc(C(=O)O)cc1,> 100 µM (inactive),> 100 µM (inactive),> 100 µM (inactive),> 100 µM (inactive),> 10,> 100 µM (inactive),> 100 µM (inactive),> 100 µM (inactive),> 100 µM (inactive),> 100 µM (inactive),> 100 µM (inactive),> 100 µM (inactive),> 100 µM (inactive),37.6 µM (inactive),> 100 µM (inactive),> 100 µM (inactive),49.5 µM (inactive),> 100 µM (inactive),> 100 µM (inactive)
CC(C)(C)c1ccc(-n2c3nc(=O)n(-c4ccccc4CO)c(=O)c-3cc3ccccc32)cc1,69.7 µM (inactive),64.3 µM (inactive),45.7 µM (inactive),> 100 µM (inactive),48.4,36.8 µM (inactive),36.1 µM (inactive),23.8 µM (inactive),42.4 µM (inactive),19.9 µM (inactive),38.4 µM (inactive),50 µM (inactive),–,26.8 µM (inactive),22.2 µM (inactive),65.6 µM (inactive),50 µM (inactive),55.3 µM (inactive),39.7 µM (inactive)
O=C1/C(=C/c2cccs2)N=C(c2ccccc2)N1C1Nc2cc3c(cc2S1)NC(N1C(=O)/C(=C/c2cccs2)N=C1c1ccccc1)S3 (centres undefined),34.1 µM (inactive),24.2 µM (inactive),40.9 µM (inactive),69.5 µM (inactive),15.6,> 100 µM (inactive),17.7 µM (inactive),2.59 µM (inactive),24.7 µM (inactive),30.2 µM (inactive),18.1 µM (inactive),13.9 µM (inactive),30.7 µM (inactive),–,18.6 µM (inactive),23 µM (inactive),51.8 µM (inactive),17.1 µM (inactive),38.7 µM (inactive)
Oc1ccccc1C1C=C(c2ccccc2)NC(N2CCCCC2)=C1c1nc2ccccc2[nH]1 (centres undefined),18.2 µM (inactive),13.4 µM (inactive),8.05 µM (inactive),–,18.2,13.7 µM (inactive),15.6 µM (inactive),14.2 µM (inactive),24.2 µM (inactive),11.9 µM (inactive),15.1 µM (inactive),15.8 µM (inactive),14.6 µM (inactive),15.8 µM (inactive),13.5 µM (inactive),12.1 µM (inactive),18.9 µM (inactive),15.9 µM (inactive),11.8 µM (inactive)
CC1=C2c3c(C)ccc4ccc(C)c(c34)C2(O)C(C)C1=O (centres undefined),73.6 µM (inactive),35.1 µM (inactive),49.5 µM (inactive),> 100 µM (inactive),42.8,44.5 µM (inactive),52.1 µM (inactive),28.2 µM (inactive),> 100 µM (inactive),89.1 µM (inactive),21 µM (inactive),15.2 µM (inactive),37.7 µM (inactive),35.8 µM (inactive),54.1 µM (inactive),68.5 µM (inactive),29.3 µM (inactive),19.4 µM (inactive),32.7 µM (inactive)
N#Cc1c(Nc2ccc(F)cc2)[n+]([O-])c2ccc(Cl)cc2[n+]1[O-],–,38.3 µM (inactive),2.47 µM (inactive),2.88 µM (inactive),2.5,2.14 µM (inactive),4.04 µM (inactive),–,11.8 µM (inactive),2.66 µM (inactive),8.93 µM (inactive),1.9 µM (inactive),2.62 µM (inactive),3.66 µM (inactive),6.73 µM (inactive),2.11 µM (inactive),2.89 µM (inactive),3.55 µM (inactive),4.81 µM (inactive)
COc1cc2c(cc1O)CC[C@@H]1C2CC[C@@]2(C)C1CC[C@@H]2O (some centres undefined),9.84 µM (inactive),1.14 µM (inactive),0.312 µM (active),16.7 µM (inactive),0.566,10.7 µM (inactive),0.105 µM (active),0.47 µM (active),2.46 µM (inactive),3.4 µM (inactive),0.472 µM (active),0.458 µM (active),0.634 µM (active),1.21 µM (inactive),0.103 µM (active),1.6 µM (inactive),4.66 µM (inactive),2 µM (inactive),6.24 µM (inactive)
Cc1ccc([N+](=O)[O-])cc1S(=O)(=O)Nc1ccc(C2=NN(c3ccc([N+](=O)[O-])cc3[N+](=O)[O-])C(c3ccccc3)C2)cc1 (centres undefined),17.6 µM (inactive),21.9 µM (inactive),16 µM (inactive),–,14.6,14.8 µM (inactive),19.3 µM (inactive),20.3 µM (inactive),17.9 µM (inactive),14.9 µM (inactive),17.2 µM (inactive),18.4 µM (inactive),14.2 µM (inactive),–,16 µM (inactive),12.2 µM (inactive),12.1 µM (inactive),17 µM (inactive),14.3 µM (inactive)
Cc1ccc2c(O)cc(-c3ccccc3)nc2n1,0.845 µM (active),0.091 µM (active),0.0366 µM (active),–,0.0352,1.44 µM (inactive),< 0.01 µM (active),0.0255 µM (active),0.274 µM (active),0.467 µM (active),0.122 µM (active),0.0367 µM (active),0.0346 µM (active),0.0521 µM (active),0.0106 µM (active),0.0509 µM (active),> 100 µM (inactive),0.217 µM (active),0.0519 µM (active)

# Source: ChEMBL document CHEMBL1201862, “PubChem BioAssay data set” (2004)
